Laboratory results published in PubChem BioAssay AID256 (DTP/NCI, 2004).
Values joined by “and” are separate entries in the source; they are usually repeats but may differ in a detail not shown here. Equal values may be shown once. Inconclusive results and toxic doses are left out.

Test system: CD2F1 mice, L1210 leukemia ip, survival T/C
Test: NCI In Vivo Anticancer Drug Screen. Data for tumor model L1210 Leukemia (intraperitoneal) in CD2F1 (CDF1) mice
Settings: higher = longer survival
Outline: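 Ratio T/C, where T is the treated-group value and C the vehicle-dosed control value, from mice implanted with a transplantable tumor.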

With `CCCN(CCC)S(=O)(=O)c1ccc(NC(=O)Oc2cc(C)ccc2C(C)C)cc1` the T/C (endpoint: mean survival time, dose: 100.0 mg/kg/injection, schedule: Q01DX001 (ip), vehicle: saline) was 100 % of control, the T/C (endpoint: mean survival time, dose: 200.0 mg/kg/injection, schedule: Q01DX001 (ip), vehicle: saline) was 95 % of control and the T/C (endpoint: mean survival time, dose: 400.0 mg/kg/injection, schedule: Q01DX001 (ip), vehicle: saline) was 94 % of control.
`CCN(CC)CCNc1ccc(C)c2sc3ccccc3c(=O)c12` was tested, and the T/C (endpoint: mean survival time, dose: 7.5 mg/kg/injection, schedule: Q01DX005 (ip), vehicle: water) was 103 % of control, the T/C (endpoint: mean survival time, dose: 15.0 mg/kg/injection, schedule: Q01DX005 (ip), vehicle: water) was 104 % of control and the T/C (endpoint: mean survival time, dose: 25.0 mg/kg/injection, schedule: Q01DX007 (ip), vehicle: saline) was 121 % of control. The T/C (endpoint: mean survival time, dose: 25.0 mg/kg/injection, schedule: Q01DX009 (ip), vehicle: saline) was 118 % of control, the T/C (endpoint: mean survival time, dose: 25.0 mg/kg/injection, schedule: Q03DX003 (ip), vehicle: saline) was 107 % of control and the T/C (endpoint: mean survival time, dose: 25.0 mg/kg/injection, schedule: Q04DX003 (ip), vehicle: saline) was 107 % of control. For the same compound, the T/C (endpoint: mean survival time, dose: 30.0 mg/kg/injection, schedule: Q01DX005 (ip), vehicle: water) was 106 % of control, the T/C (endpoint: mean survival time, dose: 50.0 mg/kg/injection, schedule: Q03DX003 (ip), vehicle: saline) was 112 % of control and the T/C (endpoint: mean survival time, dose: 50.0 mg/kg/injection, schedule: Q04DX003 (ip), vehicle: saline) was 114 % of control. For the same compound, the T/C (endpoint: mean survival time, dose: 100.0 mg/kg/injection, schedule: Q01DX007 (ip), vehicle: saline) was 163 % of control, the T/C (endpoint: mean survival time, dose: 100.0 mg/kg/injection, schedule: Q01DX009 (ip), vehicle: saline) was 171 % of control and the T/C (endpoint: mean survival time, dose: 120.0 mg/kg/injection, schedule: Q01DX005 (ip), vehicle: water) was 110 % of control. The T/C (endpoint: median survival time, dose: 6.25 mg/kg/injection, schedule: Q01DX009 (ip), vehicle: water) was 116 % of control, the T/C (endpoint: median survival time, dose: 12.5 mg/kg/injection, schedule: Q01DX009 (ip), vehicle: water) was 121 % of control and the T/C (endpoint: median survival time, dose: 25.0 mg/kg/injection, schedule: Q01DX009 (ip), vehicle: saline with Tween-80) was 114 % of control. The T/C (endpoint: median survival time, dose: 25.0 mg/kg/injection, schedule: Q01DX009 (ip), vehicle: saline) was 116 % of control and 120 % of control and 100 % of control, the T/C (endpoint: median survival time, dose: 50.0 mg/kg/injection, schedule: Q01DX009 (ip), vehicle: water) was 165 % of control and the T/C (endpoint: median survival time, dose: 100.0 mg/kg/injection, schedule: Q01DX009 (ip), vehicle: saline with Tween-80) was 198 % of control. The T/C (endpoint: median survival time, dose: 100.0 mg/kg/injection, schedule: Q01DX009 (ip), vehicle: water) was 112 % of control and the T/C (endpoint: median survival time, dose: 200.0 mg/kg/injection, schedule: Q01DX009 (ip), vehicle: saline with Tween-80) was 118 % of control.
`CCCCN(c1ccccc1)S(=O)(=O)c1ccc(Br)cc1` was tested, and the T/C (endpoint: mean survival time, dose: 100.0 mg/kg/injection, schedule: Q01DX009 (ip), vehicle: saline with Tween-80) was 97 % of control, the T/C (endpoint: mean survival time, dose: 100.0 mg/kg/injection, schedule: Q04DX003 (ip), vehicle: saline with Tween-80) was 98 % of control and the T/C (endpoint: mean survival time, dose: 200.0 mg/kg/injection, schedule: Q01DX009 (ip), vehicle: saline with Tween-80) was 95 % of control. For the same compound, the T/C (endpoint: mean survival time, dose: 200.0 mg/kg/injection, schedule: Q04DX003 (ip), vehicle: saline with Tween-80) was 102 % of control, the T/C (endpoint: mean survival time, dose: 400.0 mg/kg/injection, schedule: Q01DX009 (ip), vehicle: saline with Tween-80) was 97 % of control and the T/C (endpoint: mean survival time, dose: 400.0 mg/kg/injection, schedule: Q04DX003 (ip), vehicle: saline with Tween-80) was 101 % of control.
`COc1cc2c(c(OC)c1OC)-c1ccc(OC)c(=O)cc1[C@@H](N)CC2` was tested, and the T/C (endpoint: median survival time, dose: 1.5 mg/kg/injection, schedule: Q01DX009 (ip), vehicle: saline) was 120 % of control.
With `O=C(Nc1ccc(C(=O)O)cc1)Nc1ccc(F)c(Cl)c1` the T/C (endpoint: mean survival time, dose: 50.0 mg/kg/injection, schedule: Q01DX009 (ip), vehicle: Klucel (hydroxypropylcellulose) (HPC)) was 109 % of control, the T/C (endpoint: mean survival time, dose: 100.0 mg/kg/injection, schedule: Q01DX009 (ip), vehicle: Klucel (hydroxypropylcellulose) (HPC)) was 102 % of control and the T/C (endpoint: mean survival time, dose: 100.0 mg/kg/injection, schedule: Q04DX003 (ip), vehicle: Klucel (hydroxypropylcellulose) (HPC)) was 104 % of control. The T/C (endpoint: mean survival time, dose: 200.0 mg/kg/injection, schedule: Q01DX009 (ip), vehicle: Klucel (hydroxypropylcellulose) (HPC)) was 95 % of control and the T/C (endpoint: mean survival time, dose: 200.0 mg/kg/injection, schedule: Q04DX003 (ip), vehicle: Klucel (hydroxypropylcellulose) (HPC)) was 104 % of control.
For `CCCNC(C)=O`, the T/C (endpoint: mean survival time, dose: 100.0 mg/kg/injection, schedule: Q04DX003 (ip), vehicle: saline) was 97 % of control, the T/C (endpoint: mean survival time, dose: 200.0 mg/kg/injection, schedule: Q04DX003 (ip), vehicle: saline) was 97 % of control and the T/C (endpoint: mean survival time, dose: 400.0 mg/kg/injection, schedule: Q04DX003 (ip), vehicle: saline) was 100 % of control.
